Experiments:
[1] = test system: chemically-induced spontaneous pain evoked by intraplantar injection of formalin; assay: Formalin test, model of acute tonic pain (Example 7); format: in vivo; conditions: rat, 1 min prior to formalin
Procedure: Male Sprague-Dawley rats are housed together in groups of three animals under standard conditions with unrestricted access to food and water. All experiments are conducted according to the ethical guidelines for investigations of experimental pain in conscious animals (Zimmerman, 1983).
Assessment of formalin-induced flinching behavior in normal, uninjured rats (body weight 200-300 g) is made after formalin (2.5% in saline, 50-100 μl, s.c.) is injected into the plantar surface of the hindpaw using a 27 G needle. Rats are pretreated with test compounds either administered intravenously (IV), by subcutaneous injection (SC) or by orally (PO).
Nociceptive behavior is determined manually every 5 min by measuring the amount of time spent in each of four behavioral categories: 0, treatment of the injected hindpaw is indistinguishable from that of the contralateral paw; 1, the injected paw has little or no weight placed on it; 2, the injected paw is elevated and is not in contact with any surface; 3, the injected paw is licked, bitten, or shaken. A weighted nociceptive score, ranging from 0 to 3 is calculated by multiplying the time spent in each category by the category weight, summing these products, and dividing by the total time for each 5 min block of time. (Coderre et al., Pain 1993; 54: 43). On the basis of the resulting response patterns, […] of nociceptive behavior are identified and scored: first phase (P1; 0-5 min), interphase (Int; 6-15 min), second phase (P2; […]), phase 2A (P2A; 16-40 min) and phase 2B (P2B; 41-60 min).
Statistical analysis is performed using the Prism™ 4.01 software package (GraphPad, San Diego, Calif., USA). The difference in response levels between treatment groups and control vehicle group is analyzed using an ANOVA followed by Bonferroni's method for post-hoc pair-wise comparisons. A p value <0.05 is considered to be significant.

[2] = target: T1, recombinant homomeric hASIC1a channels (Homo sapiens, UniProt P78348); assay: Two-electrode voltage clamp in Xenopus laevis oocytes expressing gated ion channels (Example 4); format: cell-based
T1 construct: expressed in transfected cells; host or cells: Xenopus laevis oocytes (nuclear microinjection of expression vector such as pcDNA3)
T1 sequence (P78348 1-528): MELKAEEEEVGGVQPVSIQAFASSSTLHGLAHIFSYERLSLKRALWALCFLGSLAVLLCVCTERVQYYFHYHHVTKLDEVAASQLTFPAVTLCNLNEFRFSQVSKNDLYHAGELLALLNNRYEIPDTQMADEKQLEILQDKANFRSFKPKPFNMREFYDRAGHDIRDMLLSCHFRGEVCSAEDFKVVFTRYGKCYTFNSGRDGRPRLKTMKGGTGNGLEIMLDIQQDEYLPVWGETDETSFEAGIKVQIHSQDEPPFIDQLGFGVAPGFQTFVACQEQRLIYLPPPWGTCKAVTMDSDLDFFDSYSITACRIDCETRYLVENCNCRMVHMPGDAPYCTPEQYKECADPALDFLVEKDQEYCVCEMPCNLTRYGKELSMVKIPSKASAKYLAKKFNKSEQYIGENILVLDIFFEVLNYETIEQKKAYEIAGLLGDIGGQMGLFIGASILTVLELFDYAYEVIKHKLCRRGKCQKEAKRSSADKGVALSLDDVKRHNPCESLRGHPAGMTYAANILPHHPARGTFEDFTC

ASIC2a+3 = assay: Whole cell patch clamp of ASIC2a/3 channel complex heterologously expressed in CHO cells (Example 3); format: cell-based; conditions: 50 μM; CHO cells expressing ASIC2a+3; FIG. 10A
Procedure: Another example of an in vitro assessment method consists of using mammalian heterologous expression systems, which are known to the skilled in the art, and include a variety of mammalian cell lines such as COS, HEK, e.g., HEK293 and/or CHO, cells. Cell lines are transfected with gated ion channel(s) and used to perform electrophysiology as follows: All experiments are performed at room temperature (20-25° C.) in voltage clamp using conventional whole cell patch clamp methods (Neher, E., et al. (1978) Pfluegers Arch 375:219-228). The amplifier used is the EPC-9 (HEKA-electronics, Lambrect, Germany) run by a Macintosh G3 computer via an ITC-16 interface. Experimental conditions are set with the Pulse-software accompanying the amplifier. Data is low pass filtered and sampled directly to hard-disk at a rate of 3 times the cut-off frequency. […] The cells are held at a holding voltage of −60 mV and at the start of each experiment the current is continuously measured for 45 s to ensure a stable baseline. […] Current amplitudes are measured at the peak of the responses, and effect of the compounds is calculated as the amplitude at compound equilibrium divided by the amplitude of the current evoked by the pulse just before the compound is included. […] The trace represents the current evoked by the pH drop recorded using whole cell patch clamp electrophysiology.

Compound	pain intensity as evaluated by the licking behavior ([1]; SC, 2.5, 7.5, 25 and 75 mg/kg, FIG. 5A)	ED50 ([1]; SC, FIG. 5B, read-out: ED50 (number of licking and biting episodes in phase IIa of the formalin test))	IC50 ([2]; Table 1, generated using oocytes as in Example 4)	reduction in the current evoked by a mild pH stimulation ([2]; acid-induced inward currents in oocytes injected with hASIC1a cDNA, FIGS. 2A-2C)	pH evoked response (ASIC2a+3 current) (ASIC2a+3)
Cc1cc(OC2CCN(Cc3ccccc3)CC2)c2cc(O)ccc2n1 [Compound 13, 4-(1-benzylpiperidin-4-yloxy)-2-methylquinolin-6-ol]	dose-dependent reduction	~6 mg/kg	0.1 to 10 µM	clear dose-dependent reduction	–
Cc1ccc(-c2nc(Nc3ccc(C(=O)O)cc3)c3cc(Cl)ccc3n2)cc1 [Compound 124]	–	–	–	–	markedly reduced

From patent publication US20090023773A1, “COMPOSITIONS AND METHODS FOR MODULATING GATED ION CHANNELS” (PainCeptor Pharma Corporation, priority 2007, published 2009)
